In ChEMBL document CHEMBL1201862, “PubChem BioAssay data set” (2004):
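Interpolation was linear, between the two tested concentrations surrounding the appropriate level; five concentrations were tested over 48 hours in 96-well plates. GI50 is the concentration that inhibits growth by half.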 Active and inactive are the calls of the source. No stated cut-off is given here; in the data, active = GI50 up to about 1.1 µM and inactive = higher. Non-standard residues stand in square brackets, D forms with d. Residues, ends and D or L forms follow the SMILES beside them. *: point of attachment. Benzoyl(4-OMe) = COc1ccc(C(=O)*)cc1; 2Thi = N[CH](Cc1cccs1)C(=O)O

Experiments:
Assay in all cases: NCI anticancer screen, dose series, 48 h
786-0 = system: 786-0
A498 = system: A498
A549 = system: A549
ACHN = system: ACHN
BT-549 = system: BT-549
CAKI-1 = system: CAKI-1
CCRF-CEM = system: CCRF-CEM
COLO 205 = system: COLO 205
DU-145 = system: DU-145
EKVX = system: EKVX
HCT-116 = system: HCT-116
HCT-15 = system: HCT-15
HL-60 = system: HL-60
HOP-62 = system: HOP-62
HT-29 = system: HT-29
Hs-578T = system: Hs-578T
IGROV-1 = system: IGROV-1
K562 = system: K562
KM12 = system: KM12
LOX IMVI = system: LOX IMVI
M14 = system: M14
MCF7 = system: MCF7
MDA-MB-231 = system: MDA-MB-231
MDA-MB-435 = system: MDA-MB-435
MDA-N = system: MDA-N
MOLT-4 = system: MOLT-4
NCI-H226 = system: NCI-H226
NCI-H23 = system: NCI-H23
NCI-H460 = system: NCI-H460
NCI-H522 = system: NCI-H522
NCI/ADR-RES = system: NCI/ADR-RES
OVCAR-3 = system: OVCAR-3
OVCAR-4 = system: OVCAR-4
OVCAR-5 = system: OVCAR-5
OVCAR-8 = system: OVCAR-8
PC-3 = system: PC-3
RPMI-8226 = system: RPMI-8226
SF-268 = system: SF-268
SF-295 = system: SF-295
SF-539 = system: SF-539
SK-MEL-28 = system: SK-MEL-28
SK-MEL-2 = system: SK-MEL-2
SK-MEL-5 = system: SK-MEL-5
SK-OV-3 = system: SK-OV-3
SN12C = system: SN12C
SNB-19 = system: SNB-19
SNB-75 = system: SNB-75
SR = system: SR
SW-620 = system: SW-620
T47D = system: T47D
TK-10 = system: TK-10
U-251 = system: U-251
UACC-257 = system: UACC-257
UACC-62 = system: UACC-62
UO-31 = system: UO-31
HCC 2998 = system: HCC 2998
Malme-3M = system: Malme-3M
RXF 393 = system: RXF 393

SMILES: CCN(CC(COc1ccc2c(c1)[n+]([O-])nc(N)[n+]2[O-])OC(C)=O)C(C)=O (stereo not given)
- GI50 (786-0): 93.1 µM (inactive)
- GI50 (A498): 25.9 µM (inactive)
- GI50 (A549): 68.2 µM (inactive)
- GI50 (ACHN): > 100 µM (inactive)
- GI50 (BT-549): > 100 µM (inactive)
- GI50 (CAKI-1): > 100 µM (inactive)
- GI50 (CCRF-CEM): 48.2 µM (inactive)
- GI50 (COLO 205): 32.2 µM (inactive)
- GI50 (DU-145): > 10 µM (inactive)
- GI50 (EKVX): 52.2 µM (inactive)
- GI50 (HCT-116): 78.7 µM (inactive)
- GI50 (HCT-15): > 100 µM
- GI50 (HL-60): 80.4 µM (inactive)
- GI50 (HOP-62): 45.9 µM (inactive)
- GI50 (HT-29): > 100 µM (inactive)
- GI50 (Hs-578T): 51.3 µM (inactive)
- GI50 (IGROV-1): 29.1 µM (inactive)
- GI50 (K562): 14.1 µM (inactive)
- GI50 (KM12): 95.5 µM (inactive)
- GI50 (LOX IMVI): 58.3 µM (inactive)
- GI50 (M14): 89.3 µM (inactive)
- GI50 (MCF7): > 100 µM (inactive)
- GI50 (MDA-MB-231): > 100 µM (inactive)
- GI50 (MDA-MB-435): 90.4 µM (inactive)
- GI50 (MDA-N): 85.7 µM (inactive)
- GI50 (MOLT-4): 20.8 µM (inactive)
- GI50 (NCI-H226): > 100 µM (inactive)
- GI50 (NCI-H23): 49.5 µM (inactive)
- GI50 (NCI-H460): > 10 µM (inactive)
- GI50 (NCI-H522): 16.4 µM (inactive)
- GI50 (NCI/ADR-RES): > 100 µM (inactive)
- GI50 (OVCAR-3): 76.2 µM (inactive)
- GI50 (OVCAR-4): 50.5 µM (inactive)
- GI50 (OVCAR-5): > 100 µM (inactive)
- GI50 (OVCAR-8): 42.1 µM (inactive)
- GI50 (PC-3): 76.9 µM (inactive)
- GI50 (RPMI-8226): > 100 µM (inactive)
- GI50 (SF-268): 56 µM (inactive)
- GI50 (SF-295): > 100 µM (inactive)
- GI50 (SF-539): > 100 µM (inactive)
- GI50 (SK-MEL-28): > 100 µM (inactive)
- GI50 (SK-MEL-2): > 100 µM (inactive)
- GI50 (SK-MEL-5): 32 µM (inactive)
- GI50 (SK-OV-3): 15.2 µM (inactive)
- GI50 (SN12C): > 100 µM (inactive)
- GI50 (SNB-19): > 100 µM (inactive)
- GI50 (SNB-75): 35.8 µM (inactive)
- GI50 (SR): > 100 µM (inactive)
- GI50 (SW-620): > 100 µM (inactive)
- GI50 (T47D): 33.9 µM (inactive)
- GI50 (TK-10): > 100 µM (inactive)
- GI50 (U-251): > 100 µM (inactive)
- GI50 (UACC-257): 76.7 µM (inactive)
- GI50 (UACC-62): 29.6 µM (inactive)
- GI50 (UO-31): 72.3 µM (inactive)

SMILES: CCC(C)C(NC(=O)C(Cc1cccs1)NC(=O)C(CC(C)C)NC(=O)C(CC(C)C)NC(=O)C(CCCCN)NC(=O)C(CCCNC(=N)N)NC(=O)c1ccc(OC)cc1)C(=O)NC(CC(C)C)C(N)=O (stereo not given) ({Benzoyl(4-OMe)}-RKLL[2Thi]IL-NH2; configuration not given here)
- GI50 (786-0): > 100 µM (inactive)
- GI50 (A498): > 100 µM (inactive)
- GI50 (A549): > 100 µM (inactive)
- GI50 (ACHN): > 100 µM (inactive)
- GI50 (BT-549): > 100 µM (inactive)
- GI50 (CAKI-1): > 100 µM (inactive)
- GI50 (CCRF-CEM): 78.2 µM (inactive)
- GI50 (COLO 205): > 100 µM (inactive)
- GI50 (DU-145): > 100 µM (inactive)
- GI50 (EKVX): > 100 µM (inactive)
- GI50 (HCC 2998): > 100 µM (inactive)
- GI50 (HCT-116): > 100 µM (inactive)
- GI50 (HCT-15): > 100 µM
- GI50 (HOP-62): > 100 µM (inactive)
- GI50 (HT-29): > 100 µM (inactive)
- GI50 (Hs-578T): > 100 µM (inactive)
- GI50 (K562): > 100 µM (inactive)
- GI50 (KM12): > 100 µM (inactive)
- GI50 (LOX IMVI): > 100 µM (inactive)
- GI50 (M14): > 100 µM (inactive)
- GI50 (MCF7): > 100 µM (inactive)
- GI50 (MDA-MB-231): > 100 µM (inactive)
- GI50 (MDA-MB-435): > 100 µM (inactive)
- GI50 (MDA-N): > 100 µM (inactive)
- GI50 (MOLT-4): > 100 µM (inactive)
- GI50 (Malme-3M): > 100 µM (inactive)
- GI50 (NCI-H226): > 100 µM (inactive)
- GI50 (NCI-H23): > 100 µM (inactive)
- GI50 (NCI-H460): > 100 µM (inactive)
- GI50 (NCI-H522): > 100 µM (inactive)
- GI50 (NCI/ADR-RES): > 100 µM (inactive)
- GI50 (OVCAR-3): > 100 µM (inactive)
- GI50 (OVCAR-4): > 100 µM (inactive)
- GI50 (OVCAR-5): > 100 µM (inactive)
- GI50 (OVCAR-8): > 100 µM (inactive)
- GI50 (PC-3): > 100 µM (inactive)
- GI50 (RPMI-8226): > 100 µM (inactive)
- GI50 (RXF 393): > 100 µM (inactive)
- GI50 (SF-268): > 100 µM (inactive)
- GI50 (SF-295): > 100 µM (inactive)
- GI50 (SF-539): > 100 µM (inactive)
- GI50 (SK-MEL-28): > 100 µM (inactive)
- GI50 (SK-MEL-5): > 100 µM (inactive)
- GI50 (SK-OV-3): > 100 µM (inactive)
- GI50 (SN12C): > 100 µM (inactive)
- GI50 (SNB-19): > 100 µM (inactive)
- GI50 (SNB-75): > 100 µM (inactive)
- GI50 (SR): > 100 µM (inactive)
- GI50 (SW-620): > 100 µM (inactive)
- GI50 (T47D): > 100 µM (inactive)
- GI50 (TK-10): > 100 µM (inactive)
- GI50 (U-251): > 100 µM (inactive)
- GI50 (UACC-257): > 100 µM (inactive)
- GI50 (UACC-62): > 100 µM (inactive)
- GI50 (UO-31): > 100 µM (inactive)
